# Laboratory results: PubChem BioAssay (NCI)
#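 The compound was tested at five concentrations on cells cultured in 96-well plates, with a 48-hour exposure period. TGI marks complete inhibition of growth.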
# Columns and labels:
# Assay in all cases: DTP human tumour cell line panel, 48 h
# ACHN renal = test system: ACHN renal
# SR leukemia = test system: SR leukemia
# SN12C renal = test system: SN12C renal
# HOP-92 NSCLC = test system: HOP-92 NSCLC
# NCI-H226 lung = test system: NCI-H226 lung
# SK-OV-3 ovarian = test system: SK-OV-3 ovarian
# MDA-MB-231 breast = test system: MDA-MB-231 breast
# HCC-2998 colon = test system: HCC-2998 colon
# DMS 273 small cell lung = test system: DMS 273 small cell lung
# SF-295 CNS = test system: SF-295 CNS
# TK-10 renal = test system: TK-10 renal
# NCI-H460 lung = test system: NCI-H460 lung
# UACC-62 melanoma = test system: UACC-62 melanoma
# OVCAR-4 ovarian = test system: OVCAR-4 ovarian
# MCF7 breast = test system: MCF7 breast
# EKVX NSCLC = test system: EKVX NSCLC
# SF-539 CNS = test system: SF-539 CNS
# M19-MEL melanoma = test system: M19-MEL melanoma
# CAKI-1 renal = test system: CAKI-1 renal
# MALME-3M melanoma = test system: MALME-3M melanoma
# SNB-19 CNS = test system: SNB-19 CNS
# CCRF-CEM leukemia = test system: CCRF-CEM leukemia
# SW-620 colon = test system: SW-620 colon
# MDA-MB-435 = test system: MDA-MB-435
# A549 NSCLC = test system: A549 NSCLC
# RXF 393 renal = test system: RXF 393 renal
# HOP-62 NSCLC = test system: HOP-62 NSCLC
# COLO 205 colon = test system: COLO 205 colon
# SNB-75 CNS = test system: SNB-75 CNS
# K-562 leukemia = test system: K-562 leukemia
# A498 renal = test system: A498 renal
# PC-3 prostate = test system: PC-3 prostate
# KM20L2 colon = test system: KM20L2 colon
# BT-549 breast = test system: BT-549 breast
# HT29 colon = test system: HT29 colon
# OVCAR-8 ovarian = test system: OVCAR-8 ovarian
# MOLT-4 leukemia = test system: MOLT-4 leukemia
# DLD-1 colon = test system: DLD-1 colon
# IGROV1 ovarian = test system: IGROV1 ovarian
# HCT-116 colon = test system: HCT-116 colon
# HS 578T breast = test system: HS 578T breast
# LXFL 529 NSCLC = test system: LXFL 529 NSCLC
# SK-MEL-28 melanoma = test system: SK-MEL-28 melanoma
# 786-0 renal = test system: 786-0 renal
# DMS 114 small cell lung = test system: DMS 114 small cell lung
# LOX IMVI melanoma = test system: LOX IMVI melanoma
# HL-60(TB) leukemia = test system: HL-60(TB) leukemia
# OVCAR-3 ovarian = test system: OVCAR-3 ovarian
# UACC-257 melanoma = test system: UACC-257 melanoma
# UO-31 renal = test system: UO-31 renal
# KM12 colon = test system: KM12 colon
# NCI/ADR-RES ovarian = test system: NCI/ADR-RES ovarian
# HOP-18 NSCLC = test system: HOP-18 NSCLC
# RPMI-8226 leukemia = test system: RPMI-8226 leukemia
# DU-145 prostate = test system: DU-145 prostate
# NCI-H522 lung = test system: NCI-H522 lung
# U251 CNS = test system: U251 CNS
# T-47D breast = test system: T-47D breast
# SK-MEL-2 melanoma = test system: SK-MEL-2 melanoma
# M14 melanoma = test system: M14 melanoma
# SF-268 CNS = test system: SF-268 CNS
# HCT-15 colon = test system: HCT-15 colon
# SK-MEL-5 melanoma = test system: SK-MEL-5 melanoma
# MDA-N = test system: MDA-N
# NCI-H23 lung = test system: NCI-H23 lung
# OVCAR-5 ovarian = test system: OVCAR-5 ovarian
smiles,measurement,setting,value
N#Cc1c(-c2ccc(Cl)cc2)c(-c2ccc(Cl)cc2)nn(CCOC(=O)CCC(=O)O)c1=O,TGI,ACHN renal,> 100 µM
same,TGI,SR leukemia,25.6 µM
same,TGI,SN12C renal,> 60 µM
same,TGI,HOP-92 NSCLC,15.2 µM
same,TGI,NCI-H226 lung,1.42 µM
same,TGI,SK-OV-3 ovarian,30.8 µM
same,TGI,MDA-MB-231 breast,28.6 µM
same,TGI,HCC-2998 colon,16.1 µM
same,TGI,DMS 273 small cell lung,14.7 µM
same,TGI,SF-295 CNS,16.9 µM
same,TGI,TK-10 renal,> 100 µM
same,TGI,NCI-H460 lung,32.5 µM
same,TGI,UACC-62 melanoma,47.7 µM
same,TGI,OVCAR-4 ovarian,> 91.6 µM
same,TGI,MCF7 breast,> 62.3 µM
same,TGI,EKVX NSCLC,> 100 µM
same,TGI,SF-539 CNS,1.49 µM
same,TGI,M19-MEL melanoma,> 100 µM
same,TGI,CAKI-1 renal,22.9 µM
same,TGI,MALME-3M melanoma,74.9 µM
same,TGI,SNB-19 CNS,> 49.2 µM
same,TGI,CCRF-CEM leukemia,> 43.6 µM
same,TGI,SW-620 colon,> 100 µM
same,TGI,MDA-MB-435,0.193 µM
same,TGI,A549 NSCLC,> 88.6 µM
same,TGI,RXF 393 renal,11.9 µM
same,TGI,HOP-62 NSCLC,34.8 µM
same,TGI,COLO 205 colon,2.57 µM
same,TGI,SNB-75 CNS,> 75.7 µM
same,TGI,K-562 leukemia,41 µM
same,TGI,A498 renal,9.23 µM
same,TGI,PC-3 prostate,> 48.4 µM
same,TGI,KM20L2 colon,4.89 µM
same,TGI,BT-549 breast,> 100 µM
same,TGI,HT29 colon,6.39 µM
same,TGI,OVCAR-8 ovarian,> 78.4 µM
same,TGI,MOLT-4 leukemia,41.3 µM
same,TGI,DLD-1 colon,> 100 µM
same,TGI,IGROV1 ovarian,> 85.3 µM
same,TGI,HCT-116 colon,4.01 µM
same,TGI,HS 578T breast,59.7 µM
same,TGI,LXFL 529 NSCLC,> 100 µM
same,TGI,SK-MEL-28 melanoma,> 85.6 µM
same,TGI,786-0 renal,55.3 µM
same,TGI,DMS 114 small cell lung,11.8 µM
same,TGI,LOX IMVI melanoma,> 84.3 µM
same,TGI,HL-60(TB) leukemia,10.5 µM
same,TGI,OVCAR-3 ovarian,0.853 µM
same,TGI,UACC-257 melanoma,> 100 µM
same,TGI,UO-31 renal,50 µM
same,TGI,KM12 colon,71.2 µM
same,TGI,NCI/ADR-RES ovarian,> 12.9 µM
same,TGI,HOP-18 NSCLC,> 100 µM
same,TGI,RPMI-8226 leukemia,> 60 µM
same,TGI,DU-145 prostate,6.86 µM
same,TGI,NCI-H522 lung,4.88 µM
same,TGI,U251 CNS,40.3 µM
same,TGI,T-47D breast,> 100 µM
same,TGI,SK-MEL-2 melanoma,28.2 µM
same,TGI,M14 melanoma,28.5 µM
same,TGI,SF-268 CNS,> 72.1 µM
same,TGI,HCT-15 colon,4.97 µM
same,TGI,SK-MEL-5 melanoma,2.59 µM
same,TGI,MDA-N,0.202 µM
same,TGI,NCI-H23 lung,19.6 µM
same,TGI,OVCAR-5 ovarian,> 100 µM
